ChEMBL document CHEMBL2440050 (ACS Med Chem Lett, 2013)
pIC50: −log10 of the molar value.

Columns and labels:
HCT-116/VM46 [1] = test: Ratio of vinblastine IC50 to compound IC50 for vinblastine-resistant human HCT116/VM46 cells overexpressing P-gp by MTS assay; type: functional
PA-1 [2] = test: Ratio of vinblastine IC50 to compound IC50 for human PA1 cells by MTS assay; type: functional
ZR-75-1 [3] = test: Ratio of vinblastine IC50 to compound IC50 for human ZR-75-1 cells by MTS assay; type: functional
T47D [4] = test: Ratio of vinblastine IC50 to compound IC50 for human T47D cells by MTS assay; type: functional
[5] = Ratio of vinblastine IC50 to compound IC50 for human SW403 cells by MTS assay; type: functional
MDA-MB-468 [6] = test: Ratio of vinblastine IC50 to compound IC50 for human MDA-MB-468 cells by MTS assay; type: functional
LS174T = test: Ratio of vinblastine IC50 to compound IC50 for human LS 174T cells by MTS assay; type: functional
[7] = Ratio of vinblastine IC50 to compound IC50 for human LNCaP-FGC cells by MTS assay; type: functional
[8] = Ratio of vinblastine IC50 to compound IC50 for human KPL4 cells by MTS assay; type: functional
HCT-116 [9] = test: Ratio of vinblastine IC50 to compound IC50 for vinblastine-sensitive human HCT116 cells by MTS assay; type: functional
HCC70 [10] = test: Ratio of vinblastine IC50 to compound IC50 for human HCC70 cells by MTS assay; type: functional
HCC1143 [11] = test: Ratio of vinblastine IC50 to compound IC50 for human HCC1143 cells by MTS assay; type: functional
NCI-H520 [12] = test: Ratio of vinblastine IC50 to compound IC50 for human NCI-H520 cells by MTS assay; type: functional
AU565 [13] = test: Ratio of vinblastine IC50 to compound IC50 for human AU565 cells by MTS assay; type: functional
HCT-116 [14] = test: Ratio of IC50 for vinblastine-resistant human HCT116/VM46 cells overexpressing P-gp to IC50 for vinblastine-sensitive human HCT116 cells by phosphatase assay; type: functional
HCT-116/VM46 [15] = test: Growth inhibition of vinblastine-resistant human HCT116/VM46 cells overexpressing P-gp after 72 hrs by MTS assay; type: functional, cell-based; details: HCT-116/VM46, 72 h
PA-1 [16] = test: Growth inhibition of human PA1 cells after 72 hrs by MTS assay; type: functional, cell-based; details: PA-1, 72 h
T47D [17] = test: Growth inhibition of human T47D cells after 72 hrs by MTS assay; type: functional, cell-based
ZR-75-1 [18] = test: Growth inhibition of human ZR-75-1 cells after 72 hrs by MTS assay; type: functional, cell-based; details: ZR-75-1, 72 h
[19] = Growth inhibition of human SW403 cells after 72 hrs by MTS assay; type: functional, cell-based; details: SW-403, 72 h
MDA-MB-468 [20] = test: Growth inhibition of human MDA-MB-468 cells after 72 hrs by MTS assay; type: functional, cell-based; details: MDA-MB-468, 72 h
MCF7 = test: Growth inhibition of human MCF7 cells after 72 hrs by MTS assay; type: functional, cell-based; details: MCF7, 72 h
[21] = Growth inhibition of human LS 174T cells after 72 hrs by MTS assay; type: functional, cell-based; details: LS174T
[22] = Growth inhibition of human LNCaP-FGC cells after 72 hrs by MTS assay; type: functional, cell-based; details: LNCaP-Clone-FGC
[23] = Growth inhibition of human KPL4 cells after 72 hrs by MTS assay; type: functional, cell-based; details: KPL4, 72 h
HCC70 [24] = test: Growth inhibition of human HCC70 cells after 72 hrs by MTS assay; type: functional, cell-based; details: HCC70, 72 h
HCT-116 [25] = test: Growth inhibition of vinblastine-sensitive human HCT116 cells after 72 hrs by MTS assay; type: functional, cell-based; details: HCT-116, 72 h
HCC1143 [26] = test: Growth inhibition of human HCC1143 cells after 72 hrs by MTS assay; type: functional, cell-based; details: HCC1143, 72 h
NCI-H520 [27] = test: Growth inhibition of human NCI-H520 cells after 72 hrs by MTS assay; type: functional, cell-based; details: NCI-H520, 72 h
AU565 [28] = test: Growth inhibition of human AU565 cells after 72 hrs by MTS assay; type: functional, cell-based; details: AU565, 72 h
HCT-116 [29] = test: Ratio of vinblastine IC50 to compound IC50 for vinblastine-sensitive human HCT116 cells by phosphatase assay; type: functional
HCT-116/VM46 [30] = test: Ratio of vinblastine IC50 to compound IC50 for vinblastine-resistant human HCT116/VM46 cells overexpressing P-gp by phosphatase assay; type: functional
L1210 [31] = test: Ratio of vinblastine IC50 to compound IC50 for mouse L1210 cells by phosphatase assay; type: functional
HCT-116 [32] = test: Growth inhibition of vinblastine-sensitive human HCT116 cells after 72 hrs by phosphatase assay; type: functional, cell-based; details: HCT-116, 72 h
HCT-116/VM46 [33] = test: Growth inhibition of vinblastine-resistant human HCT116/VM46 cells overexpressing P-gp after 72 hrs by phosphatase assay; type: functional, cell-based; details: HCT-116/VM46, 72 h
L1210 [34] = test: Growth inhibition of mouse L1210 cells after 72 hrs by phosphatase assay; type: functional, cell-based; details: L1210, 72 h
HCT-116 [35] = test: Ratio of IC50 for vinblastine-resistant human HCT116/VM46 cells overexpressing P-gp to IC50 for vinblastine-sensitive human HCT116 cells by MTS assay; type: functional
Tubulin (Sus scrofa) = Tubulin (Sus scrofa) (UniProt P02554+P02550); test: Displacement of [3H]-VBL from porcine tubulin after 60 mins relative to control; type: protein assay
Sequence of Tubulin (Sus scrofa) (P02550 whole entry, looked up): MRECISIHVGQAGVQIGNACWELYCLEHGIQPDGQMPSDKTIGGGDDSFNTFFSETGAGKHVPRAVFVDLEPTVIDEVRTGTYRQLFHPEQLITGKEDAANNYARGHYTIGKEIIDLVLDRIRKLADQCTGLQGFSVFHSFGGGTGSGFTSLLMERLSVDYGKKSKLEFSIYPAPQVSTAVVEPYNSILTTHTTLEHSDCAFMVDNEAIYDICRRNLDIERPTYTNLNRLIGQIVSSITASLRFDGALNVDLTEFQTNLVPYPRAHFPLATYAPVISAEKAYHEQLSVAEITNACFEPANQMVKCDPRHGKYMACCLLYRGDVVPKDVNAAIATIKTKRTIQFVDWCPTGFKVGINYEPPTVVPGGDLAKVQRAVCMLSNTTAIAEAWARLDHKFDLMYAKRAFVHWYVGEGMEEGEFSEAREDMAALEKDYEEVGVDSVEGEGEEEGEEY
Sequence of Tubulin (Sus scrofa) (P02554 whole entry, looked up): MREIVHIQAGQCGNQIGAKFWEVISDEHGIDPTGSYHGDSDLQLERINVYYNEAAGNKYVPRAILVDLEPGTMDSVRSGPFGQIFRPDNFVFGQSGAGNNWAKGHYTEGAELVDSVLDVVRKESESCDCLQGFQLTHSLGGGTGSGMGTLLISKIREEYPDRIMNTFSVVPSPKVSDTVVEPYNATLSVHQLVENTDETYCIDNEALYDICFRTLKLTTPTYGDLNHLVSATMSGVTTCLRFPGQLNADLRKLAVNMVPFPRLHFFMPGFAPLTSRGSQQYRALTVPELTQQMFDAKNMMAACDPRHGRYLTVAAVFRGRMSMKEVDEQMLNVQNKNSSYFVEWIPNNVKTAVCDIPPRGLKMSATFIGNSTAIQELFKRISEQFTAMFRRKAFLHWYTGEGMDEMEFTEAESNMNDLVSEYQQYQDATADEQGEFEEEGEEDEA

SMILES | Ratio IC50 (HCT-116/VM46 [1]) | Ratio IC50 (PA-1 [2]) | Ratio IC50 (ZR-75-1 [3]) | Ratio IC50 (T47D [4]) | Ratio IC50 [5] | Ratio IC50 (MDA-MB-468 [6]) | Ratio IC50 (LS174T) | Ratio IC50 [7] | Ratio IC50 [8] | Ratio IC50 (HCT-116 [9]) | Ratio IC50 (HCC70 [10]) | Ratio IC50 (HCC1143 [11]) | Ratio IC50 (NCI-H520 [12]) | Ratio IC50 (HCT-116 [14]) | Ratio IC50 (HCT-116 [29]) | Ratio IC50 (HCT-116/VM46 [30]) | Ratio IC50 (L1210 [31]) | pIC50 (HCT-116 [32]) | pIC50 (HCT-116/VM46 [33]) | pIC50 (L1210 [34]) | also measured
CC[C@]1(NC(=O)N2CCc3ccccc3C2)C[C@H]2CN(CCc3c([nH]c4ccccc34)[C@@](C(=O)OC)(c3cc4c(cc3OC)N(C)[C@H]3[C@@](O)(C(=O)OC)[C@H](OC(C)=O)[C@]5(CC)C=CCN6CC[C@]43[C@@H]65)C2)C1 | 10 | 10 | 10 | 10 | 10 | 10 | 10 | 10 | 10 | 10 | 10 | 10 | 10 | 13 | 10 | 80 | 10 | 9.25 | 8.06 | 9.21 | Ratio IC50 (AU565 [13]): 10; pIC50 (HCT-116/VM46 [15]): 8.18; pIC50 (PA-1 [16]): 9.72; pIC50 (T47D [17]): 9.26; pIC50 (ZR-75-1 [18]): 9.28; pIC50 [19]: 8.92; pIC50 (MDA-MB-468 [20]): 9.92; pIC50 (MCF7): 8.68; pIC50 [21]: 9.52; pIC50 [22]: 10.70; pIC50 [23]: 10.22; pIC50 (HCC70 [24]): 9.89; pIC50 (HCT-116 [25]): 9.59; pIC50 (HCC1143 [26]): 9.80; pIC50 (NCI-H520 [27]): 9.85; pIC50 (AU565 [28]): 9.89
CC[C@]1(NC(=O)N2CCSCC2)C[C@H]2CN(CCc3c([nH]c4ccccc34)[C@@](C(=O)OC)(c3cc4c(cc3OC)N(C)[C@H]3[C@@](O)(C(=O)OC)[C@H](OC(C)=O)[C@]5(CC)C=CCN6CC[C@]43[C@@H]65)C2)C1 |  |  |  |  |  |  |  |  |  |  |  |  |  |  |  |  |  | 9.06 | 7.30 | 8.68 | 
CC[C@]1(NC(N)=O)C[C@H]2CN(CCc3c([nH]c4ccccc34)[C@@](C(=O)OC)(c3cc4c(cc3OC)N(C)[C@H]3[C@@](O)(C(=O)OC)[C@H](OC(C)=O)[C@]5(CC)C=CCN6CC[C@]43[C@@H]65)C2)C1 |  |  |  |  |  |  |  |  |  |  |  |  |  |  |  |  |  |  |  | 7.40 | 
CC[C@]1(NC(=O)N2Cc3ccccc3C2)C[C@H]2CN(CCc3c([nH]c4ccccc34)[C@@](C(=O)OC)(c3cc4c(cc3OC)N(C)[C@H]3[C@@](O)(C(=O)OC)[C@H](OC(C)=O)[C@]5(CC)C=CCN6CC[C@]43[C@@H]65)C2)C1 | 10 | 10 | 10 | 10 | 10 | 10 | 10 | 10 | 10 | 10 | 10 | 10 | 10 | 13 | 10 | 80 | 10 | 9.22 | 8.12 | 9.29 | Ratio IC50 (HCT-116 [35]): 20; Ratio IC50 (AU565 [13]): 10; pIC50 (HCT-116/VM46 [15]): 8.46; pIC50 (PA-1 [16]): 9.96; pIC50 (T47D [17]): 9.39; pIC50 (ZR-75-1 [18]): 9.35; pIC50 [19]: 9.35; pIC50 (MDA-MB-468 [20]): 9.41; pIC50 (MCF7): < 7.90; pIC50 [21]: 9.35; pIC50 [22]: 9.62; pIC50 [23]: 10.40; pIC50 (HCC70 [24]): 10.40; pIC50 (HCT-116 [25]): 9.80; pIC50 (HCC1143 [26]): 10.05; pIC50 (NCI-H520 [27]): 10.00; pIC50 (AU565 [28]): 9.96; Activity (Tubulin (Sus scrofa)): 41.2%
CC[C@]1(NC(=O)NC)C[C@H]2CN(CCc3c([nH]c4ccccc34)[C@@](C(=O)OC)(c3cc4c(cc3OC)N(C)[C@H]3[C@@](O)(C(=O)OC)[C@H](OC(C)=O)[C@]5(CC)C=CCN6CC[C@]43[C@@H]65)C2)C1 |  |  |  |  |  |  |  |  |  |  |  |  |  |  |  |  |  |  |  | 8.23 | 
CC[C@]1(NC(=O)N2Cc3ccc(OC)cc3C2)C[C@H]2CN(CCc3c([nH]c4ccccc34)[C@@](C(=O)OC)(c3cc4c(cc3OC)N(C)[C@H]3[C@@](O)(C(=O)OC)[C@H](OC(C)=O)[C@]5(CC)C=CCN6CC[C@]43[C@@H]65)C2)C1 |  |  |  |  |  |  |  |  |  |  |  |  |  | 13 | 10 | 80 | 10 | 9.16 | 8.06 | 9.21 | 
